≈ marks a conversion by molar mass, not a printed value. Starred links: 1 amine or outer side, 2 acyl side, 3 side chain; linkers in the order of their positions; H or OH if unused. Positions of bridges follow the written chain, without caps; N, C: chain ends. Non-standard residues stand in square brackets, D forms with d. Residues, ends and D or L forms follow the SMILES beside them. *: point of attachment. hTyr(3S-OH,4S-OH,3'-OSO3H) = N[C@H](C(=O)O)[C@H](O)[C@@H](O)c1ccc(O)c(OS(=O)(=O)O)c1; Orn(4R-OH,5R-OH) = O=C([C@H](C[C@@H](O)[C@@H](O)N[*:3])N[*:1])[*:2]; Pro(3S-OH,4S-Me) = C[C@H]1CN[C@H](C(=O)O)[C@H]1O; X1 = CCCCCOc1ccc(-c2cc(-c3ccc(C(=O)*)cc3)no2)cc1; Gln(3R-OH) = NC(=O)C[C@@H](O)[C@H](N)C(=O)O; Hyp = O=C(O)[C@@H]1C[C@@H](O)CN1
Assays:
[1] = system: strain SC5314 of C. albicans; experiment: Etest method (MIC); assay type: cell-based, Candida albicans; conditions: RPMI medium plates, 24 h at 35° C.; for MIC: Candida albicans, SC5314
Protocol: (§1) The Etest® method is a commercial test for determining the sensitivity of a strain, most frequently used routinely in clinical mycology laboratories.
(§2) The Etest® tests were performed according to the manufacturer's instructions. After distributing a standardised Mac Farland 0.5 inoculum (equivalent of […]) over plates of RPMI medium, said plates were incubated for 24 h at 35° C., with the exception of C. glabrata in which case the incubation was extended to 48 h so as to be able to determine the minimum inhibitory concentration (MIC).
(§3) The results of the MICs obtained were interpreted in accordance with the tables of the CLSI (Clinical and Laboratory Standards Institute) and/or of EUCAST (European Committee on Antimicrobial Susceptibility Testing) (Arendrup M C, Cuenca-Estrella M, Lass-Flörl C, Hope W W (2014) Breakpoints for antifungal agents: an update from EUCAST focussing on echinocandins against Candida spp and triazoles against Aspergillus spp. Drug Resist Updat 16(6):81-95. doi:10.1016/j.drup.2014.01.001) (cf. Table 2 taken from Maubon D, Garnaud C, Calandra T, et al. (2014) Resistance of Candida spp. to antifungal drugs in the ICU: where are we now? Intensive Care Med. doi: 10.1007/s00134-014-3404-7) which list the clinical thresholds (CBPs) for the most common species of yeast of the genus Candida as a function of different antifungal agents, or according to the table of epidemiological thresholds (ECVs).

[2] = system: strain DSY296 of C. albicans; experiment: Etest method (MIC); assay type: cell-based, Candida albicans; conditions: RPMI medium plates, 24 h at 35° C.; for MIC: Candida albicans
Protocol: as §1, §2, §3

[3] = system: strain 13/5 of C. tropicalis; experiment: Etest method (MIC); assay type: cell-based, Candida tropicalis; conditions: RPMI medium plates, 24 h at 35° C.
Protocol: as §1, §2, §3

[4] = system: strain TOP of C. albicans; experiment: Sensitivity test by HCA microscopy (chitin level, Calcofluor White); assay type: cell-based, Candida albicans; conditions: 6.5 h at 30° C., SC medium
Protocol: (§4) The strains of Candida were incubated beforehand at 30° C. overnight in a yeast extract medium—peptone dextrose (YPD) (1% bacto peptone, 0.5% yeast extract, 2% glucose, 1.5% agar).
(§5) Yeast colonies were then removed from YPD medium plates and suspended in a 0.9% NaCl saline solution, in which the cell concentration was estimated by optical microscopy using Kova counting slides. […]
(§6) A step of acquiring images by automated fluorescence microscopy (ScanR screening station, Olympus), using a 40× lens and a CFW filter, made it possible to obtain 30 images per well so as to capture enough cells to provide statistically significant data. These images were analysed by software (ScanR analysis software, Olympus). Firstly, the background noise was processed so as to improve the contrast between the fluorescence of the yeasts and background noise. […] Segmentation of the fluorescent elements present in each of the acquired images was then performed using an algorithm predefined in the software, making it possible to determine the limit of each element on the basis of the fluorescence intensity of said element. […]
(§7) Each element then corresponding to a yeast, it was thus possible, on the basis of these elements predefined beforehand, to define the fluorescence intensity for each of the yeasts, this intensity being directly correlated with the chitin content of their wall. […]

[5] = system: strain 13/5 of C. tropicalis; experiment: as above; assay type: cell-based, Candida tropicalis; conditions: 6.5 h at 30° C., SC medium
Protocol: as §4, §5, §6, §7

[6] = system: strain TOP of C. albicans; experiment: Etest method (MIC); assay type: cell-based, Candida albicans; conditions: RPMI medium plates, 24 h at 35° C.
Protocol: as §1, §2, §3

[7] = vs cells in the absence of antifungal agent, concentration gradient up to 1 μg/ml

OC(Cn1cncn1)(Cn1cncn1)c1ccc(F)cc1F [fluconazole]
MIC [1]: 0.125 µg/mL (≈ 0.408 µM)
phenotype by Etest MIC, interpretation by the EUCAST and CLSI tables [1]: sensitive
MIC [2]: 96 µg/mL (≈ 313 µM)
phenotype by Etest MIC, interpretation by the EUCAST and CLSI tables [2]: resistant

CCCCCOc1ccc(-c2cc(-c3ccc(C(=O)N[C@H]4C[C@@H](O)[C@@H](O)NC(=O)[C@@H]5[C@@H](O)[C@@H](C)CN5C(=O)[C@H]([C@H](O)CC(N)=O)NC(=O)[C@H]([C@H](O)[C@@H](O)c5ccc(O)c(OS(=O)(=O)O)c5)NC(=O)[C@@H]5C[C@@H](O)CN5C(=O)[C@H]([C@@H](C)O)NC4=O)cc3)no2)cc1 [micafungin] (X1-[Orn(4R-OH,5R-OH)]T[Hyp][hTyr(3S-OH,4S-OH,3'-OSO3H)][Gln(3R-OH)][Pro(3S-OH,4S-Me)]; lactam 1-C)
MIC ([3]; Candida tropicalis): 1.5 µg/mL (≈ 1.18 µM)
phenotype by Etest MIC, interpretation by the CLSI table [3]: resistant
phenotype of the strain with respect to the antifungal agent (HCA) [4]: resistant (an increase in the chitin level having a value less than 10% or a decrease in the chitin level of less than 20% or an unchanged chitin level)
increase in the chitin level in the wall of the cells [4, 7]: less than 10%
phenotype of the strain with respect to the antifungal agent (HCA) [5]: resistant (an increase in the chitin level having a value less than 10% or a decrease in the chitin level of less than 20% or an unchanged chitin level)
increase in the chitin level in the wall of the cells [5, 7]: less than 10%
MIC ([6]; Candida albicans): 1 µg/mL (≈ 0.787 µM)
phenotype by Etest MIC, interpretation by the EUCAST and CLSI tables [6]: resistant

C[C@@H](c1ncncc1F)[C@](O)(Cn1cncn1)c1ccc(F)cc1F [voriconazole]
MIC [1]: 0.012 µg/mL (≈ 0.0344 µM)
phenotype by Etest MIC, interpretation by the EUCAST and CLSI tables [1]: sensitive
MIC [2]: 1 µg/mL (≈ 2.86 µM)
phenotype by Etest MIC, interpretation by the EUCAST and CLSI tables [2]: resistant
